In patent US11066433B2, “Pentaaza macrocyclic ring complexes possessing oral bioavailability” (Galera Labs, LLC, priority 2015, dated 2021):

Assay: Oral bioavailability by intraduodenal (id) dosing of minipigs, oil formulations, versus iv parent
Type: in vivo, Gottingen minipig
Conditions: for Mini-Pig BioA: id 10 mg/kg, 10% by weight formulation, vs iv 1 mg/kg parent, AUC0-24 h
Protocol: Compounds were screened for oral bioavailability by injecting the formulated prodrugs directly into the duodenum (intraduodenal or id administration) of the minipig test subjects, thus bypassing the acidic environment of the stomach and thereby eliminating potentially misleading oral bioavailability results that could arise from alteration of the test article drug in the acid environment of the stomach.
The studies were conducted at Xenometrics LLC (Stillwell, Kans.) and the id bioavailability was determined using various axial ligand derivative complexes of GC4419, GC4444, GC4403 and GC4401.
Male Gottingen minipigs (4-5 mo old, 9-12 kg weight) were purchased from Marshall BioResources and housed at Xenometrics. […] The distal end was exteriorized with a reusable accessible hub (see surgical details below). During a recovery period of at least 2 weeks the minipigs were handled daily to acclimate them to the test procedures, i.e., id dosing and blood collections. For each experiment, each minipig received a test article drug dissolved or suspended in an excipient vehicle. […] All dosing experiments were conducted in fasted animals. Food was withdrawn from the minipigs 16 hours before dosing. The minipigs had ad libitum access to water. Dosed minipigs were allowed access to food 6 hour after dosing. The test article was administered at a dose of 10 mg/kg parent drug in 0.1 mL/kg vehicle (e.g., 1.5 mL in 15 kg minipig) as a bolus injection (˜1 minute) via the id cannula. The actual amount of total test article drug administered varied with the formula weight of the prodrug. An equal volume of excipient vehicle was used to flush the cannula after the test article was administered. Approximately 6 hours later, corn oil was used to flush the cannula. After approximately 24 hours post-dose, the catheter was flushed with sterile saline solution and capped. At the following time-points 0.25, 0.5, 1, 2, 4, 8, 24 and 48 hour post-injection, 2 mL blood samples were collected by cranial vena cava puncture (4 mL Sodium heparin Vacutainer, 20 g 1.5″ needle) after the skin surface was wiped with ethanol. The minipig was placed in a sling in a recumbent position without anesthesia for the collection of blood samples. The minipigs were never used more than once per 7 days for experimentation. The blood samples were kept on ice until processed for plasma. Blood samples were centrifuged at 1200×g for ten minutes at 4° C. and plasma samples were transferred to 96 well plate tubes, capped and stored at −20° C. until shipment on dry ice to the analytical laboratory used for measuring the concentration of drug in the plasma. The concentration of the parent manganese pentaaza macrocylic ring complex (independent of the composition of the axial ligands) was measured in plasma using a validated HPLC/MS/MS method that is linear between 50 ng/mL and 20,000 ng/mL.
Maisine 35-1 is chemically defined to be the monoglyceride glyceryl monolinoleate (NF) and was supplied by Gattefosse, SAINT-PRIEST Cedex, France. Labrasol (NF) is chemically defined to be caprylocaproyl polyoxyl-8 glycerides NF and was supplied by Gattefosse, SAINT-PRIEST Cedex, France. Labrafil M 1944 CS is chemically defined to be oleoyl polyoxyl-6 glycerides (NF), and is available from Gattefosse, SAINT-PRIEST Cedex, France. The dosing solutions were all prepared using a four place analytical balance by weighing all components of each formulation so that 10% by weight of each formulation contained the test article drug substance and 90% by weight of the oil used for that formulation.
The bioanalytical method which is used to quantitate the parent Mn(II) macrocyclic ring ligand structure in plasma utilizes HPLC with MS/MS detection and monitors the presence of the monocationic [monoformatoMn(pentaazamacrocycle)]+ complex. […]

Row | Mini-Pig BioA (base oil Capmul MCM) [%] | Mini-Pig BioA (base oil Maisine 35-1) [%] | Mini-Pig BioA (base oil Peceol) [%] | Mini-Pig BioA (base oil Labrafil M2125 CS) [%] | Mini-Pig BioA (base oil Miglyol 812 N) [%] | oral bioavailability, comparison in words (id dosing of minipigs, various oils) | Substance
1 | 24 | 18 | 29 | – | – | – | Manganese(II)bis-Benzoato[(4aS,13aS,17aS,21aS)-1,2,3,4,4a,5,6,12,13,13a,14,15,16,17,17a,18,19,20,21,21a-Eicosahydro-11,7-nitrilo-7H-dibenzo[b,h][1,4,7,10] tetraazacycloheptadecine-κN5, κN13, κN18, κN21, κN22]- [GC4712]
2 | 36 | – | – | – | – | – | Manganese(II)bis-L-Lactato[(4aS,13aS,17aS,21aS)-1,2,3,4,4a,5,6,12,13,13a,14,15,16,17,17a,18,19,20,21,21a-Eicosahydro-11,7-nitrilo-7H-dibenzo[b,h][1,4,7,10] tetraazacycloheptadecine-κN5, κN13, κN18, κN21, κN22]- [GC4714]
3 | 10 | – | – | – | – | – | Manganese(II)bis-L-phenylalaninato[(4aS,13aS,17aS,21 aS)-1,2,3,4,4a,5,6,12,13,13a,14, 15,16,17,17a,18,19,20,21,21a-Eicosahydro-11,7-nitrilo-7H-dibenzo[b, h][1,4,7,10]tetraazacyclo-heptadecine-κN5, κN13, κN18, κN21, κN22]- [GC4704]
4 | 43 | – | 29 | 25 | 42 | much better absorbed | Manganese(II)bis-L-phenylglycinato[(4aS,13aS,17aS,21 aS)-1,2,3,4,4a,5,6,12,13,13a, 14,15,16,17,17a,18,19,20,21,21a-Eicosahydro-11,7-nitrilo-7H-dibenzo[b,h][1,4,7,10]tetraazacyclo-heptadecine-κN5, κN13, κN18, κN21, κN22]- [GC4702]
5 | 13 | – | – | – | – | – | Manganese(II)bis-L-valinato[(4aS,13aS,17aS,21aS)-1,2,3,4,4a,5,6,12,13,13a,14,15,16,17,17a,18,19,20,21,21a-Eicosahydro-11,7-nitrilo-7H-dibenzo[b,h][1,4,7,10] tetraazacyclo-heptadecine-κN5, κN13, κN18, κN21, κN22]- [GC4746]
6 | 15 | 8 | 11 | 16 | – | – | Manganese(II)bis-acetato[(4aS,13aS,17aS,21aS)-1,2,3,4,4a,5,6,12,13,13a,14,15,16,17,17a,18,19,20,21,21a-Eicosahydro-11,7-nitrilo-7H-dibenzo[b,h][1,4,7,10] tetraazacycloheptadecine-κN5, κN13, κN18, κN21, κN22]- [GC4701]
7 | 9 | – | – | – | – | – | Manganese(II)bis-cyclohexanebutyrato[(4aS,13aS,17aS,21 aS)-1,2,3,4,4a,5,6,12,13,13a, 14,15,16,17,17a,18,19,20,21,21a-Eicosahydro-11,7-nitrilo-7H-dibenzo[b,h][1,4,7,10]tetraazacyclo-heptadecine-κN5, κN13, κN18, κN21, κN22]- [GC4707]
8 | 12 | – | – | – | – | – | Manganese(II)bis-dodecanoato[(4aS,13aS,17aS,21aS)-1,2,3,4,4a,5,6,12,13,13a,14,15,16,17,17a,18,19,20,21,21a-Eicosahydro-11,7-nitrilo-7H-dibenzo[b,h][1,4,7,10] tetraazacycloheptadecine-κN5, κN13, κN18, κN21, κN22]- [GC4708]
9 | – | – | 18 | 21 | – | – | Manganese(II)bis-n-Butyrato[(4aS,13aS,17aS,21aS)-1,2,3,4,4a,5,6,12,13,13a,14,15,16,17,17a,18,19,20,21,21a-Eicosahydro-11,7-nitrilo-7H-dibenzo[b,h][1,4,7,10] tetraazacycloheptadecine-κN5, κN13, κN18, κN21, κN22]- [GC4713]
10 | 13 | 8 | – | 21 | – | – | Manganese(II)bis-octanoato[(4aS,13aS,17aS,21aS)-1,2,3,4,4a,5,6,12,13,13a,14,15,16,17,17a,18,19,20,21,21a-Eicosahydro-11,7-nitrilo-7H-dibenzo[b,h][1,4,7,10] tetraazacycloheptadecine-κN5, κN13, κN18, κN21, κN22]- [GC4710]
